Assay results from paper PMC9501983, “Transport and Permeation Properties of Dapivirine: Understanding Potential Drug-Drug Interactions” (Pharmaceutics, 2022).

Columns and labels:
[1] = target: T1, ENT1 (Homo sapiens, UniProt Q99808); assay: Cellular uptake in HEK293 ENT1 and EV cells; assay type: in vitro ADME
T1 construct: host or cells: HEK293
T1 sequence (Q99808 1-456): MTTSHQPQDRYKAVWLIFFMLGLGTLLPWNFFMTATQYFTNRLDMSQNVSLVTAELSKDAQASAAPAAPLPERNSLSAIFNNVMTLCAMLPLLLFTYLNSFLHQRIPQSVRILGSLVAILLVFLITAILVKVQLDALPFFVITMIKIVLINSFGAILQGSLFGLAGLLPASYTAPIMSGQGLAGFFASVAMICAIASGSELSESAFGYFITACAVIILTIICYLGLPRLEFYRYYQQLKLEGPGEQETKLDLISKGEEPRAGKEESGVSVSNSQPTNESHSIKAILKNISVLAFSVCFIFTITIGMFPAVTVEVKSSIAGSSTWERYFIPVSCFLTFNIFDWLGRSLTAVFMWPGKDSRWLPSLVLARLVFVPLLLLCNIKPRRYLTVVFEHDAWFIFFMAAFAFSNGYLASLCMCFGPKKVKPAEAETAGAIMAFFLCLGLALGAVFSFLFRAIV
Description: HEK293 ENT1 and HEK293 EV cells were seeded at a density of 5 x 10^4 cells per well in 24-well plates and cultured for 4 days. Before the uptake assay, cells were starved in serum-free minimum essential medium at 37 °C for 3 h to activate the ENT1 transporter. The assays were performed in Krebs-Ringer buffer with pH 7.4 supplemented with 25 mM sodium bicarbonate and 1.2 mM calcium chloride dihydrate. […] 200 nM nitrobenzylthioinosine was also used as the positive control for ENT1 inhibition.
Starved cells were first incubated with respective inhibitor solution or blank Krebs-Ringer buffer for 30 min at 37 °C. […] To terminate the assay, ice-cold Dulbecco’s phosphate-buffered saline was added to cells. Cells were then washed twice with ice-cold Dulbecco’s phosphate-buffered saline and lysed with 1% SDS at room temperature for 20 min. […] The drug uptake was normalized against protein content. Changes in drug uptake between groups were calculated using the mean uptake values of individual groups.

[2] = target: T2, MRP4 (Homo sapiens, UniProt O15439); assay: ATPase assay (ADP-Glo Max) in MRP4 vesicles; assay type: biochemical; set-up: purchased Thermo Fisher Scientific; settings: DPV 20 μM; prostaglandin E2 20 μM; 60 min, 37 °C
T2 sequence (O15439 1-1325): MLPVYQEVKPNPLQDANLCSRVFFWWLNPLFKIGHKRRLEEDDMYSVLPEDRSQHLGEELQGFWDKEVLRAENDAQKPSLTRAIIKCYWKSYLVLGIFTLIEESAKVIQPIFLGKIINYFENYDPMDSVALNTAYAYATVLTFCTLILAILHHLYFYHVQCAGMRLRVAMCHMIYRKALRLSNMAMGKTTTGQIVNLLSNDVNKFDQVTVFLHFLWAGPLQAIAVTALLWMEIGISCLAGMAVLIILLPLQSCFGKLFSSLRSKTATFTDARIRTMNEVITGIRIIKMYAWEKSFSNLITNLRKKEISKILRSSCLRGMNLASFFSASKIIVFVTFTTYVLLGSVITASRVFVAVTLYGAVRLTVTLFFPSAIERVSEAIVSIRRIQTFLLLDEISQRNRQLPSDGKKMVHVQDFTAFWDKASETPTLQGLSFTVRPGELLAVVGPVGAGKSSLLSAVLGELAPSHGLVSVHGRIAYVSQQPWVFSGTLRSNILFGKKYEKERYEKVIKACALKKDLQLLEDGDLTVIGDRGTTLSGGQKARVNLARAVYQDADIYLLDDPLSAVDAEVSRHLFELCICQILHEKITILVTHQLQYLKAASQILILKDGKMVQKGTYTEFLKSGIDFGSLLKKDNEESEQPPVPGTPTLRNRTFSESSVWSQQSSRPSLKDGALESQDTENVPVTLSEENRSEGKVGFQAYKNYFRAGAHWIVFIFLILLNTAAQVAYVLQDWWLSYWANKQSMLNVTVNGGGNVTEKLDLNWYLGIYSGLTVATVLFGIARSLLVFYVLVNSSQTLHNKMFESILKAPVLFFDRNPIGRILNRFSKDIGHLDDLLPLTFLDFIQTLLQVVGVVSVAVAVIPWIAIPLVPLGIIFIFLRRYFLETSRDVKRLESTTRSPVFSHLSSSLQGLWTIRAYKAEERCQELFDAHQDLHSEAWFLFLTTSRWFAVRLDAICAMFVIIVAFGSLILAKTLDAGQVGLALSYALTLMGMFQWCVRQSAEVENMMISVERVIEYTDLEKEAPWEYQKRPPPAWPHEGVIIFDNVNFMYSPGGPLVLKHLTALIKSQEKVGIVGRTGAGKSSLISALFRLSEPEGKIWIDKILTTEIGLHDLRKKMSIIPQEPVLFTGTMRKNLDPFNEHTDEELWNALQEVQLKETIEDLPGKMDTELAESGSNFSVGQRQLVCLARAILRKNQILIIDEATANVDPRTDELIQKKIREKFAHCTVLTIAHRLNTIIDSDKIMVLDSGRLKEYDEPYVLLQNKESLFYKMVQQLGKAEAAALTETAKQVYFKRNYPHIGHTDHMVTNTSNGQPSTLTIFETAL
Description: ATPase activity of MRP1 or MRP4 in transporter overexpressing membrane vesicles (10 μg of protein per assay) was measured by the ADP-Glo Max assay according to manufacturer’s protocol. The assay quantified the amount of ADP produced by the membrane vesicles over 60 min at 37 °C in the ATPase assay buffer (50 mM Tris-MOPS, 50 mM potassium chloride, 5 mM sodium azide, 2 mM dithiothreitol, 2 mM glutathione, 0.1 mM EGTA-Tris, and 10 mM magnesium chloride at pH 7.0). DPV was tested at 20 μM and compared to the baseline ATPase activity. A known MRP1 substrate, N-ethylmaleimide-S-glutathione (prepared by mixing N-ethylmaleimide and glutathione at a 1:1 molar ratio), at 10 mM and a known MRP4 substrate, prostaglandin E2, at 20 μM were used as positive controls. The reaction was initiated with 5 mM ATP and quenched with the ADP-Glo detection buffer. The amount of ADP produced was quantified by recording luminescence on a SpectraMax M3 plate reader (Molecular Devices, San Jose, CA, USA).

[3] = system: CYP1A1; set-up: method as in PMID 34959473; settings: cited from earlier work
[4] = set-up: method as in PMID 26034880; settings: DPV ring clinical study (IPM 026); cited from earlier work

Structure (SMILES): Cc1cc(C)c(Nc2ccnc(Nc3ccc(C#N)cc3)n2)c(C)c1 [DPV, dapivirine]
- Cellular uptake of thymidine in HEK293 ENT1 cells, reduced to % of control ([1]; 5 nM thymidine, nitrobenzylthioinosine 200 nM, DPV 5 μM): no significant impact
- Cellular uptake of DPV in HEK293 ENT1 cells compared with HEK293 EV cells ([1]; 0.5 μM DPV, 10 min, 37 °C): similar
- Substrate status for ENT1 ([1]; cellular system): not a substrate
- ATPase activity in MRP4 vesicles, % of baseline [2]: no significant stimulation
- Substrate of CYP1A1 [3]: substrate
- DPV tissue concentration [4]: 1.8 µM
